Reference: patent publication US11464751B2, “Use of fluoroethylnormemantine for the prevention and treatment of anxiety” (REST THERAPEUTICS, priority 2017, dated 2022)

Legend:
naive rats (Wistar) [1] = assay: Light-dark box test; type: in vivo, rat
Protocol: (§1) In the following examples, the effects of memantine, propranolol and fluoroethylnormemantine (FENM, the subject of the present invention) are studied in naive rats (Wistar) subjected to various tests related to depression or anxiety and then compared.
(§2) The test substances are administered to rats intraperitoneally in a volume of 5 ml/kg, 30 minutes before the behavioral tests are performed.
(§3) The injected solutions contain either of the molecules in the form of one of their salts, a hydrochloride (memantine·HCl and FENM·HCl) for the nitrogen derivatives and as such for propranolol, at the concentrations indicated below in a mixture of 95% (NaCl 0.9% ww in water)/5% ethanol. In each experiment, the dose per kilogram is referenced.
For each paradigm, and each solution tested, 12 rats are subjected to injection and behavioral testing. The control solution is a saline solution.
In this example the light-dark box test was used. As it is based on rodents' innate aversion to light, the increase in time spent in the lighted compartment is therefore considered to reflect a lower level of anxiety.
The box used for this test is divided into a white behavior with high-power illumination (600 lux) and a black behavior with a lid (about 5 lux). The number of entries and the time spent in the illuminated compartment (anxiety zone) are recorded for 10 minutes by a video monitoring system. In addition, the system makes it possible to differentiate the periods between 0 and 5 minutes and between 5 and 10 minutes.

naive rats (Wistar) [2] = assay: Fear conditioning + extinction + stabilization (PTSD model); type: in vivo, rat
Description: Several animal models have been developed to mimic the traumatic events that induce intense and recurrent fear symptoms characteristic of PTSD. • Pavlovian fear conditioning of the animals: This animal model consists of Pavlovian-type fear conditioning (Zovkic, Neuropsychopharmacology Reviews (2013) 38, 77-93): mice (or rats) are trained to associate exposure to danger (electric shock, etc.) with the presence of a specific cue or environment (sound cue for example). The memory of this association (danger-cue) is later tested by measuring tetany behavior (through fear) when the animal is re-exposed to the conditioning cue in the absence of real danger.
Again, the occurrence of symptoms of PTSD are assessed after a certain period of time, without exposure to the hazard, to simulate the long-term onset of PTSD pathology. • Fear extinction: After a fear conditioning as described above it can be of interest to apply a protocol to extinguish this fear. Classically, this phase is placed 24 hours after the conditioning phase.
The extinction protocols model the relearning of the normal (non-fear-motivated) response to the cue (sound) and are very useful in modeling PTSD. • Fear stabilization: It can be useful, to assess the performance of a treatment, to add a stabilization phase after the extinction phase, spaced 24 h apart. Typically, this phase puts the animals back under the extinction phase conditions. It then allows the detection of staggered performances of the treatments, but also of the resurgence of tetany (rebound effect).
as §1, §2, §3
The applicant used a fear conditioning test in which the clue (neutral conditional stimulus) is a sound, coupled with a danger (aversive unconditional stimulus) which is an electric shock delivered by the floor of the box. This conditioning is followed by a fear extinction phase with injection of the treatment solutions to be tested and then by a test phase itself. • Fear Conditioning Phase (FC): fear conditioning takes place in a standard conditioning box (context A, white box in Table 7) and the rats (8 per group) are subjected to 3 “sound-electroshock” pairs at times of 180 s, 381 s and 582 s after being placed in the box. Each sound lasts 20 s and each electroshock lasts 1 s with a current of 1 mA. • The fear extinction phase (Ext.) is conducted as follows: the rats are placed in a box similar to the one that will be used for the final test (context B, pink box in Table 7), for a 25-minute session. During this session, 24 presentations are made with the same sound as that used during the conditioning session (20 s each, 35 s apart). Of course, no electric shock is delivered, and the percentage of time of tetany (“freezing”) during the phase is recorded. • Stabilization phase: the day after the extinction phase, 30 minutes before the test phase, […] of 3 sounds (same sequence as used for conditioning), recording the percentage of time they remain still during this test phase. […]

NMDA receptor = assay: Affinity with the NMDA receptor; type: binding; conditions: compared with memantine

SMILES | Time spent in the lighted compartment (naive rats (Wistar) [1]; 1 mg/kg i.p., 0-5 min) [s] | Time spent in the lighted compartment (naive rats (Wistar) [1]; 1 mg/kg i.p., 0-10 min) [s] | Time spent in the lighted compartment (naive rats (Wistar) [1]; 1 mg/kg i.p., 5-10 min) [s] | Time spent in the lighted compartment (naive rats (Wistar) [1]; 3 mg/kg i.p., 0-5 min) [s] | Time spent in the lighted compartment (naive rats (Wistar) [1]; 3 mg/kg i.p., 0-10 min) [s] | Time spent in the lighted compartment (naive rats (Wistar) [1]; 3 mg/kg i.p., 5-10 min) [s] | Time spent in the lighted compartment (naive rats (Wistar) [1]; 10 mg/kg i.p., 0-5 min) [s] | Time spent in the lighted compartment (naive rats (Wistar) [1]; 10 mg/kg i.p., 0-10 min) [s] | Time spent in the lighted compartment (naive rats (Wistar) [1]; 10 mg/kg i.p., 5-10 min) [s] | other results
NC12CC3CC(C1)CC(CCF)(C3)C2 | 42.4 | 71.0 | 28.6 | 34.4 | 67.5 | 33.2 | 96.8 | 171.9 | 75.0 | time spent in the lighted compartment compared with the control (naive rats (Wistar) [1]; 10 mg/kg, Student's t-test p<0.01): large and significant increase; Percentage of time of tetany (freezing) during the stabilization phase (naive rats (Wistar) [2]; 5 mg/kg, Early treatment: one injection 30 minutes before the extinction phase): 21%; Percentage of time of tetany (freezing) during the stabilization phase (naive rats (Wistar) [2]; 5 mg/kg, Late treatment: one injection 30 minutes before the stabilization phase): 26%; Percentage of time of tetany (freezing) during the stabilization phase (naive rats (Wistar) [2]; 5 mg/kg, Protective effect: one injection 30 minutes before the conditioning phase): 23%; Percentage of time of tetany (freezing) during the stabilization phase (naive rats (Wistar) [2]; 10 mg/kg, Early treatment: one injection 30 minutes before the extinction phase): 25%; Percentage of time of tetany (freezing) during the stabilization phase (naive rats (Wistar) [2]; 10 mg/kg, Late treatment: one injection 30 minutes before the stabilization phase): 4%; Percentage of time of tetany (freezing) during the stabilization phase (naive rats (Wistar) [2]; 10 mg/kg, Protective effect: one injection 30 minutes before the conditioning phase): 6%; Percentage of time of tetany (freezing) during the stabilization phase (naive rats (Wistar) [2]; 20 mg/kg, Early treatment: one injection 30 minutes before the extinction phase): 6%; Percentage of time of tetany (freezing) during the stabilization phase (naive rats (Wistar) [2]; 20 mg/kg, Late treatment: one injection 30 minutes before the stabilization phase): 2%; Percentage of time of tetany (freezing) during the stabilization phase (naive rats (Wistar) [2]; 20 mg/kg, Protective effect: one injection 30 minutes before the conditioning phase): 2%; tetany in the stabilization phase compared with control (naive rats (Wistar) [2]; administered at conditioning, early or late post-traumatic treatment): virtually eliminate; affinity with the NMDA receptor (measured in Ki) (NMDA receptor): same order of magnitude as that of memantine
CC12CC3CC(C)(C1)CC(N)(C3)C2 [Memantine, memantine] | 34.2 | 59.9 | 25.7 | 26.2 | 34.3 | 8.1 | 31.0 | 32.0 | 0.9 | time spent in the lighted compartment compared with the control (naive rats (Wistar) [1]; memantine 1, 3, 10 mg/kg): no effect was observed; rebound effect (increased tetany) compared with control during the stabilization phase (naive rats (Wistar) [2]; 10 mg/kg administered during the extinction phase): +25%
